PMC6367500, “18β-glycyrrhetyl-3-O-sulfate would be a causative agent of licorice-induced pseudoaldosteronism” (Scientific Reports, 2019)

Key:
[1] = Plasma and urine levels of GA metabolites in EHBRs orally treated with GA (LC-MS/MS); format: in vivo, Eisai hyperbilirubinuria rats (EHBRs); settings: for level in accumulated urine for 12 h / concentration at 12 h / level in accumulated urine for 12 h relative to that of 3MGA: GA 200 mg/kg orally; for concentration at 12 h: oral, read-out: plasma concentration at 12 h after treatment
Protocol: Female SD rats or EHBRs (9-week-old) were anesthetized by an intraperitoneal (i.p.) injection of urethane (1 g/kg) and their jugular veins were exposed. […] Feces were homogenized in phosphate-buffered saline (PBS; 0.15 M, pH 7.2), centrifuged (1.2 × 10^4 g, 10 min), and the supernatants were collected. After 1 week as a washout period, female SD rats were anesthetized by an i.p. injection of urethane (1 g/kg) and their biliary tract was cannulated. […] Aliquots (10 µl) of plasma, urine, homogenate of feces, or bile were mixed with 20 µl of subtilisin (0.91 U/ml) and incubated at 37 °C for 30 min, followed by the addition of 70 µl of astragaloside IV solution (1 µg/ml in ethanol containing 0.5% formic acid, used as internal standard), and kept at −20 °C for 30 min.

[2] = biological target: T1, OAT1 (Homo sapiens, UniProt Q4U2R8); settings: cited from earlier work
T1 construct: expressed in transfected cells; host or cells: MDCK II cells
T1 sequence (Q4U2R8 1-563): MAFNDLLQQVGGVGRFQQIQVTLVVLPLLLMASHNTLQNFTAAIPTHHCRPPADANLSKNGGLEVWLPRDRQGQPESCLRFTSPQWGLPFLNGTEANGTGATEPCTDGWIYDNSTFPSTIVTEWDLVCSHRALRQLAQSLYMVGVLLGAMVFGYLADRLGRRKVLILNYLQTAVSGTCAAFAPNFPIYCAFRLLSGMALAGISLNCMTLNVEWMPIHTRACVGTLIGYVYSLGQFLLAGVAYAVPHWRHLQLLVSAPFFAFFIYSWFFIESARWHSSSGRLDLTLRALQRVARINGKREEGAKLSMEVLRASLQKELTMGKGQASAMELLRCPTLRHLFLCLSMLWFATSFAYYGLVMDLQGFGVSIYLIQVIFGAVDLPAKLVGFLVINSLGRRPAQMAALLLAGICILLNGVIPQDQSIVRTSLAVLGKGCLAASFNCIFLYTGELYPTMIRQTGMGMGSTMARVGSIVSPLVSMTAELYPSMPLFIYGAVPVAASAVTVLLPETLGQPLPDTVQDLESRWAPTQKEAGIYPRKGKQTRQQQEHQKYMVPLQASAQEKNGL

[3] = biological target: T2, OAT3 (Homo sapiens, UniProt Q8TCC7); settings: cited from earlier work
T2 construct: expressed in transfected cells; host or cells: MDCK II cells
T2 sequence (Q8TCC7 1-542): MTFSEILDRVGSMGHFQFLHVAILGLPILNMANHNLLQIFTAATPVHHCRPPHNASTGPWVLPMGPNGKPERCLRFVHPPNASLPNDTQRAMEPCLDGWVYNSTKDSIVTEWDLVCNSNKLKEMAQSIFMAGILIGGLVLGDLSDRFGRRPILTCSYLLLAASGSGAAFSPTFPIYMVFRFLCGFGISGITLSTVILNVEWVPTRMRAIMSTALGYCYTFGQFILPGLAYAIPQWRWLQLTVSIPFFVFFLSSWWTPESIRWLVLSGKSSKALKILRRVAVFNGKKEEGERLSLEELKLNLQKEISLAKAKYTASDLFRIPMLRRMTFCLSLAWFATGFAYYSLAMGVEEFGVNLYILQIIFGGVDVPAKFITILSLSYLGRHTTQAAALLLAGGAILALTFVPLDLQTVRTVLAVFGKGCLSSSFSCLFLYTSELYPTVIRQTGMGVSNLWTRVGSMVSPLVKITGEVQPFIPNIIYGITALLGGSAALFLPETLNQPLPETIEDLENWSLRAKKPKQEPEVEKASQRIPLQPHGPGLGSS

[4] = tested on: rat kidney slices; experiment: Uptake into rat kidney slices from pooled EHBR plasma; format: in vitro ADME, SD rats; settings: pH 5.5, 2 h
Protocol: Kidney slices were prepared from SD rats and incubated with the pooled plasma, the pH of which pH was adjusted to 5.5 at 4 °C or 37 °C for 2 h. Figure 4A–C show the amounts of 2, 3, and GA accumulated in the kidney slices.
Figure 4 Uptake of 2 and 3 into rat kidney slices (A–C) or into MDCK II cells stably expressing OAT1 or OAT3 (D–F). Female EHBRs were orally treated with GA (200 mg/kg), and their plasma samples were collected […] after the treatment. The concentrations of compounds 2, 3, and GA in the plasma samples of EHBRs were 7.8, 11.5, and 7.0 µM, respectively. Kidneys were collected from normal SD rats, and the kidney slices were incubated with the plasma samples of EHBRs at 37 °C or 4 °C for 2 h (A–C). MDCK II cells stably expressing OAT1 or OAT3 were incubated with the plasma samples of EHBRs at 37 °C for 15 min (D–F). Then, the concentrations of compounds 2, 3, and GA in kidney slices or the cells were measured by LC-MS/MS. Data are expressed as mean ± S.E. (n = 3 for (C, D), and (E); n = 6 for (A, B), and F). *P < 0.05 and **P < 0.01 vs 4 °C group by Student’s t-test for (A–C), and vs mock cells by Dunnett’s multiple t-test for (D–F).
Uptake studies using rat kidney slices and cells stably expressing OAT1 and OAT3 were conducted with the same protocol as in our previous study. We used the same pooled plasma of female EHBRs orally treated with GA for 12 h as in our previous study.

[5] = Binding to serum albumin by ultrafiltration of pooled EHBR plasma; settings: female, EHBR (Eisai hyperbilirubinuria rat), oral, 200 mg/kg
[6] = biological target: T2, OAT3; experiment: Uptake into MDCK II cells stably expressing OAT3; format: cell-based; settings: pooled EHBR plasma, pH 5.5, 37 °C, 15 min
Protocol: Kidneys were collected from normal SD rats, and the kidney slices were incubated with the plasma samples of EHBRs at 37 °C or 4 °C for 2 h (A–C). MDCK II cells stably expressing OAT1 or OAT3 were incubated with the plasma samples of EHBRs at 37 °C for 15 min (D–F). […] Data are expressed as mean ± S.E. (n = 3 for (C, D), and (E); n = 6 for (A, B), and F). *P < 0.05 and **P < 0.01 vs 4 °C group by Student’s t-test for (A–C), and vs mock cells by Dunnett’s multiple t-test for (D–F).
Uptake studies using rat kidney slices and cells stably expressing OAT1 and OAT3 were conducted with the same protocol as in our previous study.

[7] = female, EHBR (Eisai hyperbilirubinuria rat), rat, plasma

SMILES	level in accumulated urine for 12 h [1] [nmol]	concentration at 12 h [1, 7] [µM]	substrate of OAT1 [2]	substrate of OAT3 [3]	Tmax ([1]; female, EHBR (Eisai hyperbilirubinuria rat), rat, plasma, po, 0.2 g/kg, GA 0.20 g/kg orally, read-out: time of maximum plasma concentration) [h]	uptake by kidney slices at 37 °C compared with 4 °C [4]	concentration at 12 h ([5]; plasma ultrafiltrate) [µM]	concentration at 12 h ([5]; plasma) [µM]	level in accumulated urine for 12 h relative to that of 3MGA [1] [fold]	uptake into cells expressing OAT3 compared with mock cells [6]
CC1(C)[C@@H](O[C@@H]2O[C@H](C(=O)O)[C@@H](O)[C@H](O)[C@H]2O)CC[C@]2(C)[C@H]3C(=O)C=C4[C@@H]5C[C@@](C)(C(=O)O)CC[C@]5(C)CC[C@@]4(C)[C@]3(C)CC[C@@H]12 [3MGA, 3-monoglucuronyl glycyrrhetinic acid, reference compound]	0.31	0.09	substrate	substrate	–	–	–	–	–	–
CC1(C)[C@@H](O)CC[C@]2(C)[C@H]3C(=O)C=C4[C@@H]5C[C@@](C)(C(=O)O)CC[C@]5(C)CC[C@@]4(C)[C@]3(C)CC[C@@H]12 [GA, glycyrrhetinic acid, reference compound]	0.05	~10	–	–	1	not different	< 0.016	7	–	–
CC1(C)[C@@H](OS(=O)(=O)O)CC[C@]2(C)[C@H]3C(=O)C=C4[C@@H]5C[C@@](C)(C(=O)O[C@@H]6O[C@H](C(=O)O)[C@@H](O)[C@H](O)[C@H]6O)C[C@H](O)[C@]5(C)CC[C@@]4(C)[C@]3(C)CC[C@@H]12 [compound 1, 22α-hydroxy-18β-glycyrrhetyl-3-O-sulfate-30-glucuronide]	–	~10	substrate	substrate	–	–	–	–	8	–
CC1(C)[C@@H](OS(=O)(=O)O)CC[C@]2(C)[C@H]3C(=O)C=C4[C@@H]5C[C@@](C)(C(=O)O)C[C@H](O)[C@]5(C)CC[C@@]4(C)[C@]3(C)CC[C@@H]12 [compound 2, 22α-hydroxy-18β-glycyrrhetyl-3-O-sulfate]	–	~10	–	–	–	significantly higher	< 0.0032	7.8	110	significantly higher
CC1(C)[C@@H](OS(=O)(=O)O)CC[C@]2(C)[C@H]3C(=O)C=C4[C@@H]5C[C@@](C)(C(=O)O)CC[C@]5(C)CC[C@@]4(C)[C@]3(C)CC[C@@H]12 [compound 3, 18β-glycyrrhetyl-3-O-sulfate]	–	~10	–	–	–	significantly higher	< 0.0032	11.5	62	significantly higher
